From US9045445B2, “Glycine transporter-1 inhibitors, methods of making them, and uses thereof” (Albany Molecular Research, Inc., priority 2010, dated 2015)
Counter-ions that a name gives are not always drawn. Like-named read-outs stand apart in the source and are kept apart here.

Columns and labels:
[1] = target: T1, glycine transporter-1 (GlyT-1) (Homo sapiens, UniProt P48067); assay: [14C]glycine uptake assay in JAR cells endogenously expressing GlyT-1 (scintillation proximity); format: cell-based; conditions: JAR cells, [14C]glycine 5 μM, 3 hour incubation; read-out: GlyT-1 IC50
T1 construct: JAR cells (ATCC#HTB-144), which endogenously express GlyT-1; host or cells: JAR human choriocarcinoma cells
T1 sequence (P48067 1-706): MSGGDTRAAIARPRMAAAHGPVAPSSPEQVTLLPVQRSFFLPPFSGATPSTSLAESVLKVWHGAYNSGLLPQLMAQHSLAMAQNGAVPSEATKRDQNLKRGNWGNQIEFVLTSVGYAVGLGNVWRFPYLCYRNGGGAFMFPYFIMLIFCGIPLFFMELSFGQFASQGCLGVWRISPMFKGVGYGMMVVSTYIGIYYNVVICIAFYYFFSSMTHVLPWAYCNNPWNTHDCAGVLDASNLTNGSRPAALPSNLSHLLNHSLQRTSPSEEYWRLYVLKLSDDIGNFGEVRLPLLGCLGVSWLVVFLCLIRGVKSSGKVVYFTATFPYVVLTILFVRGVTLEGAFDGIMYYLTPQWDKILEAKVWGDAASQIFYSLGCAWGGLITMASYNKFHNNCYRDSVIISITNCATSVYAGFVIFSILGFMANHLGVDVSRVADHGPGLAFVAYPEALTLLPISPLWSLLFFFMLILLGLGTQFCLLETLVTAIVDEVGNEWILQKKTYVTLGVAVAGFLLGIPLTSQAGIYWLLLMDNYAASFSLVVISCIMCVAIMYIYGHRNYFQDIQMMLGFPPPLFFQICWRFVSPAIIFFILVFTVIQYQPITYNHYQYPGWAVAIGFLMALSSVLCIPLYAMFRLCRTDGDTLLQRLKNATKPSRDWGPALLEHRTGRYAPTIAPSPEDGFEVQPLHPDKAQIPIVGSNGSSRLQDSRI
How it was run: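 Human choriocarcinoma JAR cells (endogenous GlyT-1) attached overnight, then pre-incubated 10 min at room temperature with compound in pH 7.4 Hepes uptake buffer containing 5 mM alanine and 0.75% DMSO. Uptake of 5 μM [14C]glycine over 3 h at 37 °C read by scintillation proximity; IC50 from four-parameter fit of nine-point curves.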

[2] = system: cerebrospinal fluid (CSF) glycine levels; assay: CSF-glycine assay after oral administration; format: in vivo; conditions: Rattus norvegicus, po, rats, read-out: % CSF Glycine Increase versus Vehicle Control
Procedure: This study measured cerebrospinal fluid (CSF) glycine levels after oral administration of test compound. […] After the specified pretreatment time, the rats were euthanized by CO2 asphyxiation and a hypodermic needle was inserted into the cisterna magna to withdraw 50-100 μl of CSF. The CSF was diluted with deuterated-glycine as an internal standard glycine was quantified by LC/MS/MS.

[3] = target: T2, glycine transporter-2 (GlyT-2) (Homo sapiens, UniProt Q9Y345); assay: [14C]glycine uptake assay in HEK-GlyT-2 transfected cells; format: cell-based; conditions: HEK-GlyT-2 cells
T2 construct: expressed in transfected cells
T2 sequence (Q9Y345 1-797): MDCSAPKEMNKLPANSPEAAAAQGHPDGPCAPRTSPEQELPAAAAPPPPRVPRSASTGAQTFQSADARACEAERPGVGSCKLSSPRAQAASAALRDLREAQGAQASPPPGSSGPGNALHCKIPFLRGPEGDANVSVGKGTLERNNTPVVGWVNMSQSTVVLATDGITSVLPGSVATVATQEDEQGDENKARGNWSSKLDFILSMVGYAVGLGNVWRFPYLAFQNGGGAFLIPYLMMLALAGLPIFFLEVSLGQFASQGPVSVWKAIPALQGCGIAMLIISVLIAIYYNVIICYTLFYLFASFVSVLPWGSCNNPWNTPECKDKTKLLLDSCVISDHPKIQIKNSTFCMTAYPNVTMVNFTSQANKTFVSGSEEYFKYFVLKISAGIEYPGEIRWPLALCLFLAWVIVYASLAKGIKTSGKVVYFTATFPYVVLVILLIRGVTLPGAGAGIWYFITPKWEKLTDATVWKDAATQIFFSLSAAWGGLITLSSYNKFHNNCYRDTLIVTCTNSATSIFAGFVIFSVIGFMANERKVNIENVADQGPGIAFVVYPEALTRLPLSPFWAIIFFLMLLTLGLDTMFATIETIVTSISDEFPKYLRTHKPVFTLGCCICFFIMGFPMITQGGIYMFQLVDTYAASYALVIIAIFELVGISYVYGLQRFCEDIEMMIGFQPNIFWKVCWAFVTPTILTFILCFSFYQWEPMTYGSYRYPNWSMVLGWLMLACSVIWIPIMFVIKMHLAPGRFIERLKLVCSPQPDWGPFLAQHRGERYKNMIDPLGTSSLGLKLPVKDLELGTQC

SMILES | IC50 [1] [nM] | change in vivo at 10 mg/kg ([2]; 0.5 h, pretreatment 30 mins) [%] | change in vivo at 30 mg/kg ([2]; 0.5 h, pretreatment 30 mins) [%] | change in vivo at 10 mg/kg ([2]; 2 h, pretreatment 120 mins) [%] | change in vivo at 30 mg/kg ([2]; 2 h, pretreatment 120 mins) [%] | IC50 [3] [nM] | change in vivo at 100 mg/kg ([2]; 0.5 h, pretreatment 30 mins) [%] | change in vivo at 100 mg/kg ([2]; 2 h, pretreatment 120 mins) [%] | also measured
CCCS(=O)(=O)N1CCN(C2(CNC(=O)c3c(F)cccc3F)CCC(F)(F)CC2)CC1 [compound 130, N-((4,4-Difluoro-1-(4-(propylsulfonyl)piperazin-1-yl)cyclohexyl)methyl)-2,6-difluorobenzamide Hydrochloride] | 67 | 148 | 185 | 123 | 125 | > 75000 | – | – | change in vivo at 75 mg/kg ([2]; 0.5 h, pretreatment 30 mins): 201%; change in vivo at 75 mg/kg ([2]; 2 h, pretreatment 120 mins): 201%
CCCS(=O)(=O)N1CCN(C2(CNC(=O)c3ccc(C(F)(F)F)cc3Cl)CCC(F)(F)CC2)CC1 [compound 151, N-((4,4-Difluoro-1-(4-(propylsulfonyl)piperazin-1-yl)cyclohexyl)methyl)-2-chloro-4-(trifluoromethyl)benzamide Hydrochloride] | 17 | 209 | 221 | 169 | 249 | > 75000 | 204 | 238 | –
Cn1cnc(S(=O)(=O)N2CCN(C3(CNC(=O)c4ccc(F)cc4F)CCC(F)(F)CC3)CC2)c1 [compound 162, N-((4,4-difluoro-1-(4-(1-methyl-1H-imidazol-4-ylsulfonyl)piperazin-1-yl)cyclohexyl)methyl)-2,4-difluorobenzamide Hydrochloride] | 46 | 154 | 178 | 130 | 156 | > 135000 | 207 | 156 | –
Cn1cnc(S(=O)(=O)N2CCN(C3(CNC(=O)c4c(F)cccc4F)CCC(F)(F)CC3)CC2)c1 [compound 163, N-((4,4-Difluoro-1-(4-(1-methyl-1H-imidazol-4-ylsulfonyl)piperazin-1-yl)cyclohexyl)methyl)-2,6-difluorobenzamide Hydrochloride] | 18 | 123 | 202 | 132 | 215 | 74900 | 280 | 221 | –
Cn1cc(S(=O)(=O)N2CCN(C3(CNC(=O)c4c(F)cccc4F)CCC(F)(F)CC3)CC2)nn1 [compound 189, N-((4,4-Difluoro-1-(4-(1-melhyl-1H-1,2,3-triazol-4-ylsulfonyl)piperazin-1-yl)cyclohexyl)methyl)-2,6-difluorobenzamide Hydrochloride] | 5 | 158 | 219 | 203 | 270 | > 75000 | 281 | 288 | –
Cn1cc(S(=O)(=O)N2CCN(C3(CNC(=O)c4ccc(F)cc4Cl)CCC(F)(F)CC3)CC2)nn1 [compound 192, 2-Chloro-N-((4,4-difluoro-1-(4-(1-methyl-1H-1,2,3-triazol-4-ylsulfonyl)piperazin-1-yl)cyclohexyl)methyl)-4-fluorobenzamide Hydrochloride] | 1 | 195 | – | 311 | – | > 75000 | – | – | change in vivo at 3 mg/kg ([2]; 0.5 h, pretreatment 30 mins): 173%; change in vivo at 3 mg/kg ([2]; 2 h, pretreatment 120 mins): 199%
CCCS(=O)(=O)N1CCN(C2(CNC(=O)c3c(F)cc(Cl)cc3F)CCC(F)(F)CC2)CC1 [compound 259, 4-Chloro-N-((4,4-difluoro-1-(4-(propylsulfonyl)piperazin-1-yl)cyclohexyl)methyl)-2,6-difluorobenzamide Hydrochloride] | 25 | – | – | – | – | > 75000 | – | – | –
CCCS(=O)(=O)N1CCN(C2(CNC(=O)c3c(Cl)cc(Cl)cc3Cl)CCC(F)(F)CC2)CC1 [compound 260, 2,4,6-Trichloro-N-((4,4-difluoro-1-(4-(propylsulfonyl)piperazin-1-yl)cyclohexyl)methyl) benzamide Hydrochloride] | 17 | – | – | – | – | > 75000 | – | – | –
CCCS(=O)(=O)N1CCN(C2(CNC(=O)c3cc(F)c(Cl)cc3Cl)CCC(F)(F)CC2)CC1 [compound 263, 2,4-Dichloro-N-((4,4-difluoro-1-(4-(propylsulfonyl)piperazin-1-yl)cyclohexyl)methyl)-5-fluorobenzamide Hydrochloride] | 23 | – | – | – | – | > 75000 | – | – | –
CCCS(=O)(=O)N1CCN(C2(CNC(=O)c3cc(F)c(F)cc3Cl)CCC(F)(F)CC2)CC1 [compound 264, 2-Chloro-N-((4,4-difluoro-1-(4-(propylsulfonyl)piperazin-1-yl)cyclohexyl)methyl)-4,5-difluorobenzamide Hydrochloride] | 48 | – | – | – | – | > 75000 | – | – | –
CCCS(=O)(=O)N1CCN(C2(CNC(=O)c3c(C)cc(Cl)cc3C)CCC(F)(F)CC2)CC1 [compound 266, 4-Chloro-N-((4,4-difluoro-1-(4-(propylsulfonyl)piperazin-1-yl)cyclohexyl)methyl)-2,6-dimethylbenzamide Hydrochloride] | 11 | – | – | – | – | > 75000 | – | – | –
CCCS(=O)(=O)N1CCN(C2(CNC(=O)c3ccc(C(F)(F)F)cc3C(F)(F)F)CCOCC2)CC1 [compound 267, N-((4-(4-(propylsulfonyl)piperazin-1-yl)tetrahydro-2H-pyran-4-yl)methyl)-2,4-bis(trifluoromethyl) benzamide Hydrochloride] | 46 | – | – | 138 | 229 | – | – | – | change in vivo at 10 mg/kg ([2]; 6 h, pretreatment 360 mins): 129%; change in vivo at 30 mg/kg ([2]; 6 h, pretreatment 360 mins): 190%
O=C(NCC1(N2CCN(S(=O)(=O)N3CCCC3)CC2)CCC(F)(F)CC1)c1ccc(C(F)(F)F)cc1Cl [compound 270, 2-Chloro-N-((4,4-difluoro-1-(4-(pyrrolidin-1-ylsulfonyl)piperazin-1-yl)cyclohexyl)methyl)-4-(trifluoromethyl)benzamide Hydrochloride] | 47 | – | – | – | – | > 75000 | – | – | –
